Columns and labels:
[1] = biological target: T1, 5-hydroxytryptamine receptor 2A (Homo sapiens, UniProt P28223); format: functional, cell-based
[2] = biological target: Beta-2 adrenergic receptor (Homo sapiens, UniProt P07550); format: functional, cell-based
[3] = biological target: T2, 5-hydroxytryptamine receptor 1A (Homo sapiens, UniProt P08908); format: functional, cell-based
T2 sequence (P08908 whole entry): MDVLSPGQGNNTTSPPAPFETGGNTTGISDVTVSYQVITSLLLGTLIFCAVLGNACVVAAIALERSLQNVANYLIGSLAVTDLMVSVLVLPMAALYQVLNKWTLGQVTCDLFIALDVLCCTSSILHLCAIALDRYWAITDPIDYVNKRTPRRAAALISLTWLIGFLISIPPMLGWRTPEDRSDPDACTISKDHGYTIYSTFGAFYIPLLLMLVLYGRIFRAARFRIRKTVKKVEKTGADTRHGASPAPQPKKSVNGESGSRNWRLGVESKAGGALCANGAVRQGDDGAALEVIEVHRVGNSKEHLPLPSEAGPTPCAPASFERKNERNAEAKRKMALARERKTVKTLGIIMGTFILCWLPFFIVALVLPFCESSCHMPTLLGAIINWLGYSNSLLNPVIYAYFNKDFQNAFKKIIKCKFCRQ

[4] = biological target: T3, Alpha-1A adrenergic receptor (Homo sapiens, UniProt P35348)
T3 sequence (P35348 whole entry): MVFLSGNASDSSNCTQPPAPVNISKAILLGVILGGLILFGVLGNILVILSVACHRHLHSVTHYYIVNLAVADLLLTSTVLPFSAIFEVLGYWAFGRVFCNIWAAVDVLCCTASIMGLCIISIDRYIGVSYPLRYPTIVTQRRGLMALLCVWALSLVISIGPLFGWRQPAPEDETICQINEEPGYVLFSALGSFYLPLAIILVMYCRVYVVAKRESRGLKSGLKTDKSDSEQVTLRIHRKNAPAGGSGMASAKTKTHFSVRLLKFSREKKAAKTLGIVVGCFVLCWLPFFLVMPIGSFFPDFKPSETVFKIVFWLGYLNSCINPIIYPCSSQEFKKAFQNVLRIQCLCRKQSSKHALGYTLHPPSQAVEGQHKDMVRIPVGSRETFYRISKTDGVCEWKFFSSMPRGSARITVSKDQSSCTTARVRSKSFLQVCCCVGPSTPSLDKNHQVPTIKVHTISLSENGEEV

Mu-type opioid receptor [5] = biological target: T4, Mu-type opioid receptor (Homo sapiens, UniProt P35372); experiment: biochemical; format: functional
T4 sequence (P35372 whole entry): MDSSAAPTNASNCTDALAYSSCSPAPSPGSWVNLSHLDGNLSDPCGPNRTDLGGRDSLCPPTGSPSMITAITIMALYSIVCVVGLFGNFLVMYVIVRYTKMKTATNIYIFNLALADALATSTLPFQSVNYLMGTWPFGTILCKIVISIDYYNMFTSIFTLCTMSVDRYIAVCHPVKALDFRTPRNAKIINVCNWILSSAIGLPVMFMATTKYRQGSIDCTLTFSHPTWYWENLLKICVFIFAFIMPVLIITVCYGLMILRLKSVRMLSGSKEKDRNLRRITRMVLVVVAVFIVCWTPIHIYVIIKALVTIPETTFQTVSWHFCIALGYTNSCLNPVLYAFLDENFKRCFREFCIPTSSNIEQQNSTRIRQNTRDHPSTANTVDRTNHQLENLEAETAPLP

[6] = biological target: T1, 5-hydroxytryptamine receptor 2A; format: functional, cell-based; remark: listed apart in the source
Cannabinoid receptor 1 [7] = biological target: T5, Cannabinoid receptor 1 (Homo sapiens, UniProt P21554); format: functional, cell-based
T5 sequence (P21554 whole entry): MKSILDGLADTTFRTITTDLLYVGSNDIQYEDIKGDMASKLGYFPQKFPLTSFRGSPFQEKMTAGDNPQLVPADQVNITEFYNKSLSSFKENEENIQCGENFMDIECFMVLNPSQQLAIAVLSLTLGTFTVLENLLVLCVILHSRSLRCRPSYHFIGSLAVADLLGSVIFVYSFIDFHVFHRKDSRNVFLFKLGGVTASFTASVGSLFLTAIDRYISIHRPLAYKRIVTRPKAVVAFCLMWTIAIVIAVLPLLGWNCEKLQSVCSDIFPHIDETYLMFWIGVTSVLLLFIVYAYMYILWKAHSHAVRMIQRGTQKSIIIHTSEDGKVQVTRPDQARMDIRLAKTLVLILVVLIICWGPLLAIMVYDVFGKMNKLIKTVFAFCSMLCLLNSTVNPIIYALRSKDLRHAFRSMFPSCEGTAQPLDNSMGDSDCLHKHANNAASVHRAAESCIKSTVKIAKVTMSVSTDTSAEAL

[8] = biological target: T6, Muscarinic acetylcholine receptor M1 (Homo sapiens, UniProt P11229); format: functional
T6 sequence (P11229 whole entry): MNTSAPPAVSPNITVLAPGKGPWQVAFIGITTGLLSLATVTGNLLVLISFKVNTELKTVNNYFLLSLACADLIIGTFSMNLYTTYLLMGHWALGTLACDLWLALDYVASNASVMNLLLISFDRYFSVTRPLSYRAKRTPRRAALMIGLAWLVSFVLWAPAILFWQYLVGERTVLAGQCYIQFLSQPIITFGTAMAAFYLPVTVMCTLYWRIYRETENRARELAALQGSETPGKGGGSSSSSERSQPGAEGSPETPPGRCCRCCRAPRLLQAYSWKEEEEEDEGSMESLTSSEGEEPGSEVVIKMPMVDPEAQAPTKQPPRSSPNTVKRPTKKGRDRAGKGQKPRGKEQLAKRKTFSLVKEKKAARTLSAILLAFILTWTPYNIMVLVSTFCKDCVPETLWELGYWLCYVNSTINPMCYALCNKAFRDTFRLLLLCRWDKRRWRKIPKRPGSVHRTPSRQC

[9] = biological target: T7, Alpha-2B adrenergic receptor (Homo sapiens, UniProt P18089)
T7 sequence (P18089 whole entry): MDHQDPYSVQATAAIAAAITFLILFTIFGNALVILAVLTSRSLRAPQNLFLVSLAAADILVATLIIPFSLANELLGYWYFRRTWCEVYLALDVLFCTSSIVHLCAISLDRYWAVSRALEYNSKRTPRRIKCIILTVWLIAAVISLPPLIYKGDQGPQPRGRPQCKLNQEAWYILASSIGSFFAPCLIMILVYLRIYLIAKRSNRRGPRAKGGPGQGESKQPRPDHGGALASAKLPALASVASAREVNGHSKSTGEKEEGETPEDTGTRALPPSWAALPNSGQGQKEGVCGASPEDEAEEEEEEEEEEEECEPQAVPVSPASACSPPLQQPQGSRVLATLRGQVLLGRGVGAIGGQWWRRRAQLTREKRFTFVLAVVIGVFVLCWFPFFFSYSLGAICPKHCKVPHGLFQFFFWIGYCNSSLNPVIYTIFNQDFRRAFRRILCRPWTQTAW

Histamine H1 receptor = Histamine H1 receptor (Homo sapiens, UniProt P35367)
Chain of Histamine H1 receptor (P35367 whole entry): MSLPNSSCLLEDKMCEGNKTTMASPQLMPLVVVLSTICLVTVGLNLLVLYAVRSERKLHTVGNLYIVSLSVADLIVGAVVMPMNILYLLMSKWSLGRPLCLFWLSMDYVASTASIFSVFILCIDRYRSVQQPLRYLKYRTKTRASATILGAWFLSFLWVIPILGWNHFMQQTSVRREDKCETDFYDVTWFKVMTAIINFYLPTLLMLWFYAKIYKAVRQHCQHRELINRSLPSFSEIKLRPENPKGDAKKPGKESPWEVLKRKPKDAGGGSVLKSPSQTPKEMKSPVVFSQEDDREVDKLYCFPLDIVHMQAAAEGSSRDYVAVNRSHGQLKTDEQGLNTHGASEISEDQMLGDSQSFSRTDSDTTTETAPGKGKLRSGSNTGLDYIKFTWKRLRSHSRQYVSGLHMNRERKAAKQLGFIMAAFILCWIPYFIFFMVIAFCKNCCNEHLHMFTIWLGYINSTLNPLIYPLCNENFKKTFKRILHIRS

Cannabinoid receptor 1 [10] = biological target: T5, Cannabinoid receptor 1; format: functional, cell-based; remark: listed apart in the source
Melanocortin receptor 4 = Melanocortin receptor 4 (Homo sapiens, UniProt P32245)
Chain of Melanocortin receptor 4 (P32245 whole entry): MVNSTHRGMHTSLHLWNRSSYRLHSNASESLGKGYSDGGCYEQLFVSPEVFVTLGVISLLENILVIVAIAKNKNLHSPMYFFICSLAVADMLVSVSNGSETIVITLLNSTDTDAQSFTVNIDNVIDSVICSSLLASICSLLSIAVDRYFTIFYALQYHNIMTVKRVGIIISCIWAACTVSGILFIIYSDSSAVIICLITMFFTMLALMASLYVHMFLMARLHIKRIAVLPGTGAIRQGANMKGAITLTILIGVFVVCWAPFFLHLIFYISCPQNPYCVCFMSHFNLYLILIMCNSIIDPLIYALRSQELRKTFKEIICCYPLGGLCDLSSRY

Mu-type opioid receptor [11] = biological target: T4, Mu-type opioid receptor
Cannabinoid receptor 1 [12] = biological target: T5, Cannabinoid receptor 1
Also: assay procedure not described here.

T1 sequence (P28223 whole entry): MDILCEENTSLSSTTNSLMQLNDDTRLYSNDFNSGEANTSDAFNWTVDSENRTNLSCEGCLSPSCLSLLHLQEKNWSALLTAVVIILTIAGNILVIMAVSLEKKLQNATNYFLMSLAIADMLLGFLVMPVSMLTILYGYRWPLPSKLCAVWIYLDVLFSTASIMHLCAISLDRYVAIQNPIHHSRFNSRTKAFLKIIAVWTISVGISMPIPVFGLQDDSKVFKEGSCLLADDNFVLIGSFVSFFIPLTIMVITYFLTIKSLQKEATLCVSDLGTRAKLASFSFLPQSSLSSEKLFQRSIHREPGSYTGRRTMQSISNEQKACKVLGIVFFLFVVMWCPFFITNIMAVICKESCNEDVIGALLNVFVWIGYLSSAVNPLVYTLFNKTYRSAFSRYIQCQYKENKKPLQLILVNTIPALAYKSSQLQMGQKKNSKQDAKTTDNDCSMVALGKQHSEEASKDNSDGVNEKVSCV
Chain of Beta-2 adrenergic receptor (P07550 whole entry): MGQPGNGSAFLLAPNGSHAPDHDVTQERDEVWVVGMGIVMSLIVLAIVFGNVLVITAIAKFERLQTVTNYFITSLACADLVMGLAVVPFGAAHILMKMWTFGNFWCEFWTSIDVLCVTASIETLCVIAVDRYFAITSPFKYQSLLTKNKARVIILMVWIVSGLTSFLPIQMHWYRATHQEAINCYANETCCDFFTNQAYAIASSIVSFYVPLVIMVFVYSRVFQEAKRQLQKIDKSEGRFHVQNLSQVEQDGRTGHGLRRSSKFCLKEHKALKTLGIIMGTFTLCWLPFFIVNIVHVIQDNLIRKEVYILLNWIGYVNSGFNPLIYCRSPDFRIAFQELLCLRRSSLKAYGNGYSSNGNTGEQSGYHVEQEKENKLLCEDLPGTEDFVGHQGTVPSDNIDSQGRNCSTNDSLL

Compound | AC50 [1] [µM] | AC50 [2] [µM] | AC50 [3] [µM] | AC50 [4] [µM] | AC50 (Mu-type opioid receptor [5]) [µM] | AC50 [6] [µM] | AC50 (Cannabinoid receptor 1 [7]) [µM] | AC50 [8] [µM] | AC50 [9] [µM] | AC50 (Histamine H1 receptor) [µM] | AC50 (Cannabinoid receptor 1 [10]) [µM] | AC50 (Melanocortin receptor 4) [µM] | AC50 (Mu-type opioid receptor [11]) [µM] | AC50 (Cannabinoid receptor 1 [12]) [µM]
CC(C)N(CCCCOCC(=O)O)c1cnc(-c2ccccc2)c(-c2ccccc2)n1 | > 30 | > 30 | > 30 | > 30 | > 30 | > 30 | > 30 | > 30 | > 30 | > 30 | > 30 |  |  | 
C[N+]12CCC(CC1)C(OC(=O)C(O)(c1ccccc1)c1ccccc1)C2 (configuration not stated) | > 30 | > 30 |  |  | > 30 | > 30 | > 30 | 0.0031 | > 30 | > 30 | > 30 |  |  | 
CC(=O)c1ccc(S(=O)(=O)NC(=O)NC2CCCCC2)cc1 [ACETOHEXAMIDE] | > 30 | > 30 | > 10 | > 10 | > 30 | > 30 | > 30 | > 10 | > 10 | > 10 | > 30 | > 10 | > 30 | > 10
NS(=O)(=O)c1cc2c(cc1Cl)N=C(CSCc1ccccc1)NS2(=O)=O [BENZTHIAZIDE] | > 10 |  | > 10 | > 30 | > 30 | > 10 |  | > 30 | 7.4 | > 30 |  | > 10 | > 30 | > 10
CO/N=C(\C(=O)N[C@@H]1C(=O)N2C(C(=O)O)=CCS[C@H]12)c1csc(N)n1 [CEFTIZOXIME] | > 30 | > 30 |  |  | > 30 | > 30 | > 30 | > 30 |  | > 30 | > 30 |  |  | 
CO/N=C(\C(=O)N[C@@H]1C(=O)N2C(C(=O)O)=C(CSc3nc(=O)c(=O)[nH]n3C)CS[C@H]12)c1csc(N)n1 [CEFTRIAXONE] | > 30 | > 30 | > 30 |  | > 30 | > 30 | > 30 | > 30 | > 30 | > 30 | > 30 |  |  | 
CC(C)[C@@H](C)/C=C/[C@@H](C)[C@H]1CC[C@H]2/C(=C/C=C3\C[C@@H](O)CC[C@@H]3C)CCC[C@]12C [DIHYDROTACHYSTEROL] | > 10 |  | > 10 | > 10 |  | > 10 |  | > 10 | > 10 | > 10 |  | > 10 | > 30 | > 10
CN1CCN=C(c2ccccc2)c2cc(Cl)ccc21 [MEDAZEPAM] | > 30 | > 30 | > 30 |  | > 30 | > 30 | > 30 | > 30 | > 30 | > 30 | > 30 |  |  | 
CCCC(C)(COC(N)=O)COC(N)=O [MEPROBAMATE] | > 10 |  | > 10 | > 30 | > 30 | > 10 |  | > 30 | > 10 | > 10 |  | > 10 | > 30 | > 10
O=C(NCCO[N+](=O)[O-])c1cccnc1 [NICORANDIL] | > 30 | > 30 |  |  | > 30 | > 30 | > 30 | > 30 | > 30 | > 30 | > 30 |  |  | 
CO[C@H]1C[C@H](O[C@H]2CC[C@@]3(C)[C@H](CC[C@@H]4[C@@H]3CC[C@]3(C)[C@@H](C5=CC(=O)OC5)[C@@H](OC(C)=O)C[C@]43O)C2)O[C@@H](C)[C@@H]1O [OLEANDRIN] | > 30 | > 30 | > 30 |  |  | > 30 | > 30 | > 30 | > 30 | > 30 | > 30 |  |  | 
O=c1[nH]c2ccccc2n1CCCN1CCN(C(c2ccccc2)c2ccccc2)CC1 [OXATOMIDE] | > 30 | > 30 |  |  | 1.8 | 1.2 | > 30 | 5.8 | > 30 | 0.034 | > 30 |  | 1.2 | 
COc1cc2[nH]c(C)c(CCN3CCN(c4ccccc4)CC3)c2cc1OC [OXYPERTINE] | > 30 | > 30 | 0.15 |  | > 30 | 0.41 | > 30 | > 30 | 0.25 | 1.9 | > 30 |  |  | 
c1ccc(C2(N3CCCCC3)CCCCC2)cc1 [PHENCYCLIDINE] | > 30 | > 30 | > 30 |  | > 30 | > 30 | > 30 | > 30 |  | > 30 | > 30 |  |  | 
COc1cc(C(=O)OCc2cccc(COC(=O)c3cc(OC)c(OC)c(OC)c3)n2)cc(OC)c1OC [PIROZADIL] | > 30 | > 30 | > 30 |  | > 30 | > 30 | > 30 | > 30 | > 30 | > 30 | > 30 |  |  | 
CC1=C(/C=C/C(C)=C/C=C/C(C)=C/CO)C(C)(C)CCC1 [RETINOL] | > 10 |  | > 10 | > 10 | > 30 | > 10 |  | > 10 | > 30 | > 10 |  | > 10 | > 30 | > 10
CCN1CCCC1CNC(=O)c1cc(S(=O)(=O)CC)ccc1OC (configuration not stated) [SULTOPRIDE] | > 30 | > 30 | > 30 |  | > 30 | > 30 | > 30 | > 30 | 10 | > 30 | > 30 |  |  | 
C=CCN1CCc2nc(N)sc2CC1 [TALIPEXOLE] | 11 | > 30 | > 30 | > 30 | > 30 | 24 | > 30 | > 30 |  | 28 | > 30 |  |  | 
